# Patent publication US8772250B2, “Compositions and methods for treating ischemia and ischemia-reperfusion injury” (Ischemix, LLC, priority 2010, dated 2014)
# Marks after values point to notes of the source that are not given here.
# Tests used:
# Akt = test: Immunohistochemistry assay for phosphorylated Akt in H9c2 cells; assay type: cell-based, rat; conditions: 50 μM, 3 hours, vs vehicle
# Method: The ability of RLip-EA-OH to increase phosphorylated Akt was assayed in H9c2 cells by immunocytochemistry followed by visualization using microscopy. H9c2 cells are a cell line derived from rat cardiac myocytes and can be manipulated to increase or decrease the level of phosphoryated Akt. Cells were inoculated onto culture plates and allowed to adhere to the bottom, treated, fixed, and permeabilized. Following permeabilization, cells were treated initially with specific phospho-Akt antibodies followed by fluorescent secondary antibodies to quantify the amount of bound primary antibody.
# H9c2 cells were plated in 12 well cell culture treated plates at 70% confluence. Cells were incubated overnight to allow cell attachment. The media was changed to low serum (0.5%, fetal bovine serum [FBS]) and cells incubated for another 48 hours. Cells were treated for 3 hours with either vehicle, RLip-EA-OH (50 μM), or co-treatment with LY294002 (25 μM), fixed with 3.7% formaldehyde in phosphate buffered saline and permeabilized with 0.5% Triton X-100 in phosphate buffered saline. After permeabilization, the cells were treated with antibody specific for Akt phosphorylated at threonine-308, followed by treatment with a fluorescent labeled secondary antibody.
# [1] = tested on: myocardial ischemia-reperfusion injury; test: Rat model of myocardial I/R injury (MI/AR ratio); assay type: in vivo; conditions: for % Reduction in MI/AR Compared to Vehicle: rat IV
# Source text: A rat model of myocardial I/R injury was used as an in vivo screen to determine if certain lipoic acid derivative compounds are cardio-protective (e.g., against mycoardial ischemia-reperfusion injury). This model is analogous to the ischemia-reperfusion injury observed in cardiac patients following coronary occlusions and cardiac surgery procedures, such as coronary artery bypass grafting (CABG) (Matsui, T., Tao, J., del Monte, F., Lee, K.-H. et al., Akt Activation Preserves Cardiac Function and Prevents Injury After Transient Cardiac Ischemia In vivo, Circulation 2001, 104:330).
# The circumflex branch of the left coronary artery was ligated temporarily to induce regional ischemia in the left ventricular mass, followed by the injection of fluorescent microspheres to delineate the ischemic region. The animals were sacrificed about 24 hours after reperfusion and the hearts were excised, sectioned and stained with triphenyltetrazolium. The direct impact of the pharmacologic intervention was determined by measuring the myocardial infarct area (MI), the ischemic area at risk (AR) and the left ventricular area (LV). The reduction of MI over the AR (MI/AR ratio) was used as the primary measure of drug efficacy relative to vehicle controls.
# Male Sprague-Dawley rats between 300 and 350 gm were used for these experiments. Anesthesia was induced with 3-4% isoflurane in an induction chamber. After induction, anesthesia was maintained at a surgical plane with 1.5-2.0% isoflurane, administered by a Rodent Ventilator through a 16-gauge angiocatheter introduced orally into the trachea. The ventilator was set at 2.5 cc at a rate of 60-65 breaths per minute to maintain ventilation during surgery. The core temperature of the animal was monitored and maintained at 37° C. using a rectal probe and a heating lamp attached to a temperature controller.
# A left anterior thoracotomy was performed and the heart was exposed using a vertical pericardotomy. The circumflex branch of the left coronary artery (LCx) was ligated approximately 4 mm from the aorta using a cardiovascular 7.0 monofilament suture on an 11 mm needle to induce ischemia in the left ventricle.
# Fluorescent microspheres (300 μL) were injected into the left ventricular cavity 10-20 minutes after the ligation to delineate the ischemic area. The suture was removed 30 minutes after ligation to reperfuse the ischemic area and the ischemic area was checked for reperfusion.
# The chest was then closed in layers using absorbable suture (Dexon 5-0) for the muscle layers and monofilament Nylon 5-0 suture was used to close the cutaneous layer. The animals were allowed to recover, then were returned to the colony.
# Twenty-four hours after reperfusion, anesthesia was induced using ketamine hydrochloride and the chest was opened. The animals were sacrificed with 15% potassium chloride aqueous solution (w/v) injected into the LV cavity to arrest the heart in diastole. The heart was excised distal to the aortic valve and washed with saline to remove the blood. Sagittal slices of the heart were obtained between the base of the ventricle and the apex. Five slices of heart tissue were obtained, each 2 mm thick. The slices were immersed in a 1% 2,3,5-triphenyl-2H-tetrazolium chloride (TTC) in saline solution and then stored in the dark for 30 minutes to stain.
# Images of the slices were obtained under bright field (to observe the TTC staining) and under fluorescence (to observe the microspheres). The area at risk was determined by the absence of microspheres and the infarct area was determined by the absence of TTC staining.
# In vivo experiments employing a rat model of myocardial I/R injury were performed as described in Example 8. Catheterized (jugular vein) rats were used for intravenous dose administration at time points prior to and/or including 0.25 h.
# CHO M1-WT3 cells = test: Cytosolic calcium overload assay, carbachol stimulated; assay type: cell-based, Chinese hamster; conditions: 200 nM carbachol, variant concentrations
# Source text: Cytosolic calcium increases in the CHO M1-WT3 cells when stimulated with carbachol ([Molecular Devices, FlexStation Application Note 2, Comparison of FLIPR® and FLEXstation™ for Calcium Mobilization Assays]) and may be detected with a fluorescent dye that binds calcium. An increase in fluorescence following carbachol stimulation is interpreted as an increase in cytosolic calcium. Chinese hamster ovary (CHO) cells were allowed to adhere to the bottom of a 96-well culture plate. The fluorescent dye and a test sample were placed on the plate and allowed to be taken up by the cells. The fluorescence level was measured every two seconds using a plate reader (Flexstation II, Molecular Devices, Sunnyvale Calif.). The cells were stimulated with carbachol and fluorescent data reported as the peak increase in fluorescence above baseline following carbachol stimulation. Data were normalized to the peak carbachol response in the control sample.
# CHO cells from the cell line CHO-M1-WT3 were grown in Hams F12 medium supplemented with 10% FBS and 5 μg/mL G418 to maintain expression of the M1 muscarinic receptor. Cells were seeded the night before the experiment at a concentration of 30,000 cells/well in a volume of 100 μL per well of black walled, clear bottomed, 96-well microplates (“assay plates”). Cells were incubated at 37° C. and 5% CO2 overnight. […] The cells were placed into the FlexStation system to monitor fluorescence before and after the addition of 50 μL of 1 μM carbachol for a final concentration of 200 nM. Fluorescence was measured for 17 seconds prior to carbachol addition and 43 seconds following carbachol addition. The Fluo-4 dye was excited at a wavelength of 485 nm and emission measured at 525 nm. The Calcium-3 dye was excited at a wavelength of 494 nm and emission measured at 525 nm. The calcium response was reported as the peak fluorescence minus the baseline fluorescence calculated as the average of the fluorescence prior to carbachol addition.
compound,measurement,setting,value
"C[C@H](NC(=O)[C@H](CCC(=O)O)NC(=O)CCCC[C@@H]1CCSS1)C(=O)O [RLip-EA-OH, N-(R)-lipoyl-L-glutamyl-L- alanine]",fluorescence intensity (Akt phosphorylated at threonine-308),Akt,much brighter
same,% Reduction in MI/AR Compared to Vehicle,[1]; Entry 2b: 3 mg/kg (1 h infusion) at −1 h,12%
same,% Reduction in MI/AR Compared to Vehicle,[1]; Entry 5: 15 mg/kg at −0.25 h,30* %
same,% Reduction in MI/AR Compared to Vehicle,[1]; Entry 7: 10 mg/kg at −3 h,33* %
same,% Reduction in MI/AR Compared to Vehicle,[1]; Entry 12: 10 and 10 mg/kg at −3 and −0.25 h,43* %
same,% Reduction in MI/AR Compared to Vehicle,[1]; Entry 13: 20 and 10 mg/kg at −3 and −0.25 h,38* %
same,% Reduction in MI/AR Compared to Vehicle,[1]; Entry 16: 10 and 10 and 10 mg/kg at −3 and −0.25 h and at reperfusion,15%
same,% Reduction in MI/AR compared to vehicle controls,"[1]; rat, Table 11: 10 mg/kg at −3 h",29%
same,reduction of MI (meta-analysis),"[1]; rat, multiple dosing 10 mg/kg at −3 h and −0.25 h",43%
same,effect on carbachol stimulated flux in cytosolic calcium,CHO M1-WT3 cells,diminished the flux in cytosolic calcium in a dose dependent manner
